pIC50: −log10 of the molar value. Bounds are passed on as bounds.

Here are results for 25 compounds from US8017612B2, “Piperazine compound and use thereof as a HCV polymerase inhibitor” (priority 2006, dated 2011).

For test [1], the target named is T1, HCV polymerase (NS5B) type 1b (Hepatitis C virus genotype 1b, UniProt P26663).
T1 construct: a region encoding NS5B (J Virol 1991 March, 65(3), 1105-13, 544 amino acids after deletion of 47 amino acids on the C-terminal); 6xHis (C); made in house; host or cells: Escherichia coli
Put plainly: Assay of enzyme (HCV polymerase) inhibitory activity, type 1b enzyme. Type of test: biochemical, HCV BK strain (type 1b). The conditions noted are these: HCV polymerase inhibitory activity (IC50), 1b, type 1b enzyme 0.5 μg/ml, 25° C., 60 min. Put shortly: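 IC50 derived from [3H]UTP incorporation into TCA-insoluble RNA, compared with and without test compound. Reaction (25 °C, 60 min, Tris pH 7.5, 5 mM MgCl2): E. coli-expressed 1b NS5B Δ47 with His tag at 0.5 μg/ml, 5 μg/ml run-off substrate RNA, ATP/GTP/CTP 50 μM, UTP 2 μM.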

Test [2] deals with T2, HCV polymerase (NS5B) type 1a (Hepatitis C virus genotype 1a, UniProt P26664).
T2 construct: made in house; host or cells: Escherichia coli (by the 'similar method' of the 1b enzyme)
Kind of test: Assay of enzyme (HCV polymerase) inhibitory activity, type 1a enzyme. It is filed as biochemical, HCV type 1a (cloned from the blood of patients). The conditions noted are these: HCV polymerase inhibitory activity (IC50), 1a, type 1a enzyme 1.5 μg/ml, 25° C., 60 min. In a few lines: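 Reactions ran 60 min at 25° C in 20 mM Tris-HCl pH 7.5, 5 mM MgCl2, 50 mM NaCl, holding genotype 1a NS5B (1.5 μg/ml, Δ47 C-terminus, 6His), substrate RNA 5 μg/ml, UTP 2 μM with tritiated UTP and other NTPs 50 μM. IC50 derived from incorporated radiolabel in filter-trapped RNA relative to uninhibited reaction.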

A word on the pIC50: it is the negative decadic logarithm of the IC50, by convention in mol/L. For `CC(=O)N1CCN(S(=O)(=O)c2ccc(C(C)C)cc2)C(C(=O)NCc2cccc(N(C)C)c2)C1` (centres unmarked) [Example 128, 4-acetyl-1-(4-isopropyl-benzenesulfonyl)-piperazine-2-carboxylic acid 3-dimethylamino-benzylamide], the pIC50 in test [1] and in test [2] was less than 6.00 in each case.

With `CC(=O)N1CCN(S(=O)(=O)c2ccc(C(C)C)cc2)C(C(=O)NCc2ccccc2N(C)C)C1` (centres unmarked) [Example 129, 4-acetyl-1-(4-isopropyl-benzenesulfonyl)-piperazine-2-carboxylic acid 2-dimethylamino-benzylamide], the pIC50 in test [1] and in test [2] was less than 6.00 each time.

`CCC(=O)N1CCN(S(=O)(=O)c2ccc(I)cc2)C(C(=O)NCc2ccc(N(C)C)cc2)C1` (centres unmarked) [Example 130, 1-(4-iodo-benzenesulfonyl)-4-propionyl-piperazine-2-carboxylic acid 4-dimethylamino-benzylamide]: the pIC50 in test [1] and in test [2] was less than 6.00 each time.

As for `CN(C)c1ccc(CNC(=O)C2CN(C(=O)Cc3ccccc3)CCN2S(=O)(=O)c2ccc(I)cc2)cc1` (centres unmarked) [Example 131, 1-(4-iodo-benzenesulfonyl)-4-phenylacetyl-piperazine-2-carboxylic acid 4-dimethylamino-benzylamide], the pIC50 in test [1] is 6.00 to 7.00; in test [2], less than 6.00.

Consider `CC(=O)N1CCN(S(=O)(=O)c2ccc(CO)cc2)C(C(=O)NCc2ccc(C(F)(F)F)cc2)C1` (centres unmarked) [Example 132, 4-acetyl-1-(4-hydroxymethyl-benzenesulfonyl)-piperazine-2-carboxylic acid 4-trifluoromethyl-benzylamide], for which the negative logarithm of the IC50 (pIC50) in test [1] and in test [2] was less than 6.00 in each case.

With `CC(C)c1ccc(S(=O)(=O)N2CCN(C3=NCCO3)CC2C(=O)NCc2ccc(C(F)(F)F)cc2)cc1` (centres unmarked) [Example 133, 4-(4,5-dihydro-oxazol-2-yl)-1-(4-isopropyl-benzenesulfonyl)-piperazine-2-carboxylic acid 4-trifluoromethyl-benzylamide], the negative-log IC50 (pIC50) in test [1] and in test [2] was less than 6.00 in each case.

As to `CC(C)c1ccc(S(=O)(=O)N2CCN(c3nc4ccccc4s3)CC2C(=O)NCc2ccc(C(F)(F)F)cc2)cc1` (centres unmarked) [Example 134, 4-benzothiazol-2-yl-1-(4-isopropyl-benzenesulfonyl)-piperazine-2-carboxylic acid 4-trifluoromethyl-benzylamide], the pIC50 in test [1] and in test [2] was less than 6.00 throughout.

`CC(C)c1ccc(S(=O)(=O)N2CCN(c3nc(-c4ccccc4)cs3)CC2C(=O)NCc2ccc(C(F)(F)F)cc2)cc1` (centres unmarked) [Example 135, 1-(4-isopropyl-benzenesulfonyl)-4-(4-phenyl-thiazol-2-yl)-piperazine-2-carboxylic acid 4-trifluoromethyl-benzylamide]: the pIC50 in test [1] and in test [2] was less than 6.00 in each case.

Regarding `COc1ccc(S(=O)(=O)N2CCN(C(C)=O)CC2C(=O)NCc2ccc(C(F)(F)F)cc2)cc1OC` (centres unmarked) [Example 136, 4-acetyl-1-(3,4-dimethoxy-benzenesulfonyl)-piperazine-2-carboxylic acid 4-trifluoromethyl-benzylamide], the pIC50 in test [1] and in test [2] was less than 6.00 each time.

`CC(=O)N1CCN(S(=O)(=O)c2ccc(C(C)C)cc2)[C@@H](C(=O)NCc2ccc(C(C)C)cc2)C1` [Example 137, (R)-4-acetyl-1-(4-isopropyl-benzenesulfonyl)-piperazine-2-carboxylic acid 4-isopropyl-benzylamide]: the pIC50 in test [1] and in test [2] was more than 7.00 each time.

With `CC(=O)N1CCN(S(=O)(=O)c2ccc(C(C)C)cc2)[C@@H](C(=O)NCCc2ccc(Cl)cc2)C1` [Example 138, (R)-4-acetyl-1-(4-isopropyl-benzenesulfonyl)-piperazine-2-carboxylic acid [2-(4-chloro-phenyl)-ethyl]-amide], the pIC50 in test [1] and in test [2] was less than 6.00 throughout.

Consider `CC(=O)N1CCN(S(=O)(=O)c2ccc(C(C)C)cc2)C(C(=O)NCc2ccc(C3CCCC3)cc2)C1` (centres unmarked) [Example 139, 4-acetyl-1-(4-isopropyl-benzenesulfonyl)-piperazine-2-carboxylic acid 4-cyclopentyl-benzylamide], for which the pIC50 in test [1] and in test [2] was 6.00 to 7.00 each time.

Regarding `CCCC(CCC)c1ccc(CNC(=O)C2CN(C(C)=O)CCN2S(=O)(=O)c2ccc(C(C)C)cc2)cc1` (centres unmarked) [Example 140, 4-acetyl-1-(4-isopropyl-benzenesulfonyl)-piperazine-2-carboxylic acid 4-(1-propyl-butyl)-benzylamide], the pIC50 in test [1] and in test [2] was less than 6.00 in each case.

For `CC(=O)N1CCN(S(=O)(=O)c2ccc(C(C)C)cc2)C(C(=O)NCc2ccc(-c3cccc(Cl)c3)cc2)C1` (centres unmarked) [Example 141, 4-acetyl-1-(4-isopropyl-benzenesulfonyl)-piperazine-2-carboxylic acid (3′-chloro-biphenyl-4-ylmethyl)-amide], the pIC50 in test [1] and in test [2] was less than 6.00 in each case.

Regarding `CC(=O)N1CCN(S(=O)(=O)c2ccc(C(C)C)cc2)C(C(=O)NCc2ccc(-c3ccccc3Cl)cc2)C1` (centres unmarked) [Example 142, 4-acetyl-1-(4-isopropyl-benzenesulfonyl)-piperazine-2-carboxylic acid (2′-chloro-biphenyl-4-ylmethyl)-amide], the pIC50 in test [1] and in test [2] was less than 6.00 throughout.

Consider `COCc1ccc(S(=O)(=O)N2CCN(C(C)=O)CC2C(=O)NCc2ccc(C(F)(F)F)cc2)cc1` (centres unmarked) [Example 143, 4-acetyl-1-(4-methoxymethyl-benzenesulfonyl)-piperazine-2-carboxylic acid 4-trifluoromethyl-benzylamide], for which the pIC50 in test [1] and in test [2] was less than 6.00 throughout.

Consider `CCc1ccc(CNC(=O)C2CN(C(C)=O)CCN2S(=O)(=O)c2ccc(C(C)C)cc2)cc1` (centres unmarked) [Example 144, 4-acetyl-1-(4-isopropyl-benzenesulfonyl)-piperazine-2-carboxylic acid 4-ethyl-benzylamide], for which the pIC50 in test [1] and in test [2] was 6.00 to 7.00 in each case.

`CC(=O)N1CCN(S(=O)(=O)c2ccc(C(C)C)cc2)C(C(=O)NCCCc2ccccc2)C1` (centres unmarked) [Example 145, 4-acetyl-1-(4-isopropyl-benzenesulfonyl)-piperazine-2-carboxylic acid (3-phenyl-propyl)-amide]: the pIC50 in test [1] and in test [2] was less than 6.00 in each case.

As to `CC(C)c1ccc(CNC(=O)[C@H]2CN(CC(N)=O)CCN2S(=O)(=O)c2ccc(C(F)(F)F)cc2)cc1` [Example 146, (R)-4-carbamoylmethyl-1-(4-trifluoromethyl-benzenesulfonyl)-piperazine-2-carboxylic acid 4-isopropyl-benzylamide], the pIC50 was 6.00 to 7.00 in test [1] and less than 6.00 in test [2].

`CC(C)c1ccc(CNC(=O)[C@H]2CN(C3CC(=O)NC3=O)CCN2S(=O)(=O)c2ccc(C(F)(F)F)cc2)cc1` (stereo partly drawn) [Example 147, (R)-4-(2,5-dioxo-pyrrolidin-3-yl)-1-(4-trifluoromethyl-benzenesulfonyl)-piperazine-2-carboxylic acid 4-isopropyl-benzylamide]: the pIC50 in test [1] is 6.00 to 7.00; in test [2] it was less than 6.00.

As for `CC(C)c1ccc(CNC(=O)[C@H]2CN(C3=C(c4ccccc4)C(=O)NC3=O)CCN2S(=O)(=O)c2ccc(C(F)(F)F)cc2)cc1` [Example 148, (R)-4-(2,5-dioxo-4-phenyl-2,5-dihydro-1H-pyrrol-3-yl)-1-(4-trifluoromethyl-benzenesulfonyl)-piperazine-2-carboxylic acid 4-isopropyl-benzylamide], the pIC50 in test [1] and in test [2] was less than 6.00 throughout.

`CC(=O)N1CCN(S(=O)(=O)c2ccc(C(C)C)cc2)[C@@H](C(=O)NCCc2ccccc2Cl)C1` [Example 149, (R)-4-acetyl-1-(4-isopropyl-benzenesulfonyl)-piperazine-2-carboxylic acid [2-(2-chloro-phenyl)-ethyl]-amide]: the pIC50 in test [1] and in test [2] was less than 6.00 throughout.

With `CC(=O)N1CCN(S(=O)(=O)c2ccc(C(C)C)cc2)[C@@H](C(=O)NCCc2cccc(Cl)c2)C1` [Example 150, (R)-4-acetyl-1-(4-isopropyl-benzenesulfonyl)-piperazine-2-carboxylic acid [2-(3-chloro-phenyl)-ethyl]-amide], the pIC50 in test [1] and in test [2] was less than 6.00 throughout.

Consider `CC(=O)N1CCN(S(=O)(=O)c2ccc(C(C)C)cc2)C(C(=O)NCc2ccc(C(F)(F)F)nc2)C1` (centres unmarked) [Example 151, 4-acetyl-1-(4-isopropyl-benzenesulfonyl)-piperazine-2-carboxylic acid (6-trifluoromethyl-pyridin-3-ylmethyl)-amide], for which the pIC50 in test [1] and in test [2] was less than 6.00 each time.

For the compound `CC(=O)N1CCN(S(=O)(=O)c2ccc(C(C)C)cc2)C(C(=O)NCc2ccccn2)C1` (centres unmarked) [Example 152, 4-acetyl-1-(4-isopropyl-benzenesulfonyl)-piperazine-2-carboxylic acid (pyridin-2-ylmethyl)-amide], the pIC50 in test [1] and in test [2] was less than 6.00 in each case.
